{"source": "patent US20050042711A1", "about": "“Field test for fungi” (GEORGE MASON UNIVERSITY, priority 2003, published 2005)", "key": {"[1]": {"system": "bacteria inoculated into the medium", "conditions": "nicotinic acid 0.1 M; three to four days", "description": "(§1) The base ISTOR medium has the following composition:\n(§2) The medium was prepared in potassium phosphate buffer at pH 5.7."}, "fungi tested": {"system": "fungi tested", "conditions": "nicotinic acid 0.1 M; three to four days", "description": "as §1, §2"}}, "data": [{"smiles": "O=C(O)c1cccnc1", "note": "[nicotinic acid]", "values": [{"measurement": "solubility in water", "value": "not very soluble in water"}, {"measurement": "growth of bacteria", "setting": "[1]", "value": "none of the bacteria inoculated into the medium grew"}, {"measurement": "growth of fungi", "setting": "fungi tested", "value": "all of the fungi tested exhibited growth"}]}]}
